In BindingDB's records for doi:10.1021/acs.jmedchem.3c00203 (University of Oxford, 2023):

Columns and labels:
[1] = biological target: T1, Isocitrate dehydrogenase [NADP] cytoplasmic (Homo sapiens, UniProt O75874); assay: Binding affinity to recombinant IDH1 R132H mutant (unknown origin) expressed in Escherichia coli BL21(DE3) pLysS cells assessed as dissociation constant by NMR analysis
Target sequence in this assay (O75874 2-414 R132H limits assumed): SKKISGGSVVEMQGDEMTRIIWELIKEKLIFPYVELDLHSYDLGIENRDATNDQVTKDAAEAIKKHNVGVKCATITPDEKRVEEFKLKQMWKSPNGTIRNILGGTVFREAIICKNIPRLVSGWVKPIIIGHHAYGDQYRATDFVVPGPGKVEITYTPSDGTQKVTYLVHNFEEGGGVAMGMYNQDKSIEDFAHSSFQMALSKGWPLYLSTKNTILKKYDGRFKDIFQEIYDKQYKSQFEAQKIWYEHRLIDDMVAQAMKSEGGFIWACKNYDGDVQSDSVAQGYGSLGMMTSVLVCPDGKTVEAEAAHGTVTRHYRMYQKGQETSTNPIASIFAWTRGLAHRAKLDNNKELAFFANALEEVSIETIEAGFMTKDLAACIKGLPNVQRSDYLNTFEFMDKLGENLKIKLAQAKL

[2] = biological target: T1, Isocitrate dehydrogenase [NADP] cytoplasmic; assay: Inhibition of recombinant IDH1 R132H mutant (unknown origin) expressed in Escherichia coli BL21(DE3) pLysS cells using 2OG as substrate assessed as 2OG conversion to 2HG incubated for 60 mins in presence of NADPH by spectrophotometric analysis
Target sequence in this assay (O75874 2-414 R132H limits assumed): as above

[3] = biological target: T1, Isocitrate dehydrogenase [NADP] cytoplasmic; assay: Binding affinity to recombinant wildtype IDH1 (unknown origin) expressed in Escherichia coli BL21(DE3) pLysS cells assessed as dissociation constant by NMR analysis
Target sequence in this assay (O75874 whole entry): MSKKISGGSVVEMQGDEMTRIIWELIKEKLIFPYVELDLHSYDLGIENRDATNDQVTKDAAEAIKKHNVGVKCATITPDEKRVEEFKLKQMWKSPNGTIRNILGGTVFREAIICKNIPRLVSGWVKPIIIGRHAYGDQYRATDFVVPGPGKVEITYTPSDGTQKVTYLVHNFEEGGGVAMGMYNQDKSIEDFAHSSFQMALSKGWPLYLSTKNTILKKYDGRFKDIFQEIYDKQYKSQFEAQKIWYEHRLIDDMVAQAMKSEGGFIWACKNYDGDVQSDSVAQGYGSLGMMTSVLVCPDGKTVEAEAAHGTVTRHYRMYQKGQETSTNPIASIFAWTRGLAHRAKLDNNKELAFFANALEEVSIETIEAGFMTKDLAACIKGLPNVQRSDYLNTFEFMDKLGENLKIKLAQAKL

[4] = biological target: T1, Isocitrate dehydrogenase [NADP] cytoplasmic; assay: Binding affinity to recombinant IDH1 R132H mutant (unknown origin) expressed in Escherichia coli BL21(DE3) pLysS cells assessed as dissociation constant by ITC assay
Target sequence in this assay (O75874 2-414 R132H limits assumed): as the sequence (O75874 2-414 R132H limits assumed) above

[5] = biological target: T1, Isocitrate dehydrogenase [NADP] cytoplasmic; assay: Binding affinity to recombinant wildtype IDH1 (unknown origin) expressed in Escherichia coli BL21(DE3) pLysS cells assessed as dissociation constant by ITC assay
Target sequence in this assay (O75874 whole entry): as the sequence (O75874 whole entry) above

[6] = biological target: T1, Isocitrate dehydrogenase [NADP] cytoplasmic; assay: Inhibition of recombinant wildtype IDH1 (unknown origin) expressed in Escherichia coli BL21(DE3) pLysS cells using DL-isocitrste as substrate assessed as DL-isocitrate conversion to 2OG incubated for 60 mins in presence of NADPH by spectrophotometric analysis
Target sequence in this assay (O75874 whole entry): as above

[7] = biological target: T1, Isocitrate dehydrogenase [NADP] cytoplasmic; assay: Binding affinity to human recombinant IDH1 expressed in Escherichia coli BL21(DE3) pLysS cells assessed as dissociation constant by non-denaturing mass spectroscopic analysis
Target sequence in this assay (O75874 whole entry): as above

[8] = biological target: T1, Isocitrate dehydrogenase [NADP] cytoplasmic; assay: Binding affinity to human recombinant IDH1 R132H mutant expressed in Escherichia coli BL21(DE3) pLysS cells assessed as dissociation constant by non-denaturing mass spectroscopic analysis
Target sequence in this assay (O75874 2-414 R132H limits assumed): as the sequence (O75874 2-414 R132H limits assumed) above

`CC(=O)N1CCN(Cc2ccc([C@H](C)Nc3nccc(N4C(=O)OC[C@@H]4C(C)C)n3)cc2)CC1` [US8957068, 556] was tested, and the Kd [1] was 1100 nM, the IC50 [2] was 8.2 nM and the Kd [3] was 1700 nM. For the same compound, the Kd [4] was > 400 µM, the Kd [5] was > 400 µM and the IC50 [6] was 341 nM. For the same compound, the Kd [7] was 140 µM and the Kd [8] was 142 µM.
